Experimental data taken from ChEMBL document CHEMBL1201862, “PubChem BioAssay data set” (2004).
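Compound exposure: 48 hours, 5 concentrations, 96-well plates. Abbreviation: GI50, concentration required for 50% inhibition of growth.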 Activity calls are given as the source filed them. No stated cut-off is given here; in the data, active = GI50 up to about 1.1 µM and inactive = higher.

What was measured:
Assay in all cases: inhibition of tumour cell growth, NCI panel, 48 h
786-0 = tested on: 786-0
ACHN = tested on: ACHN
CCRF-CEM = tested on: CCRF-CEM
COLO 205 = tested on: COLO 205
HCT-116 = tested on: HCT-116
HL-60 = tested on: HL-60
HOP-92 = tested on: HOP-92
M14 = tested on: M14
NCI/ADR-RES = tested on: NCI/ADR-RES
OVCAR-3 = tested on: OVCAR-3
OVCAR-5 = tested on: OVCAR-5
OVCAR-8 = tested on: OVCAR-8
SF-268 = tested on: SF-268
SF-295 = tested on: SF-295
SF-539 = tested on: SF-539
SK-MEL-5 = tested on: SK-MEL-5
TK-10 = tested on: TK-10
UO-31 = tested on: UO-31
A498 = tested on: A498
SR = tested on: SR

SMILES	GI50 (786-0)	GI50 (ACHN)	GI50 (CCRF-CEM)	GI50 (COLO 205)	GI50 (HCT-116)	GI50 (HL-60)	GI50 (HOP-92)	GI50 (M14)	GI50 (NCI/ADR-RES)	GI50 (OVCAR-3)	GI50 (OVCAR-5)	GI50 (OVCAR-8)	GI50 (SF-268)	GI50 (SF-295)	GI50 (SF-539)	GI50 (SK-MEL-5)	GI50 (TK-10)	GI50 (UO-31)	GI50 (A498)	GI50 (SR)
O=C1C(=CNC(=S)c2ccccc2)C(=O)c2ccccc21	27.5 µM (inactive)	38.9 µM (inactive)	25 µM (inactive)	69.7 µM (inactive)	46.7 µM (inactive)	4.28 µM (inactive)	40.7 µM (inactive)	65.6 µM (inactive)	61.5 µM (inactive)	76 µM (inactive)	> 100 µM (inactive)	54.6 µM (inactive)	71.8 µM (inactive)	91 µM (inactive)	58.5 µM (inactive)	58.9 µM (inactive)	41.6 µM (inactive)	25.8 µM (inactive)		
O=C1C(=O)c2cc([N+](=O)[O-])ccc2-c2ccc([N+](=O)[O-])cc21			0.289 µM (active)	3.01 µM (inactive)	0.177 µM (active)	0.246 µM (active)	0.21 µM (active)		0.344 µM (active)	0.29 µM (active)	3.27 µM (inactive)	0.351 µM (active)	0.484 µM (active)	1.71 µM (inactive)	0.741 µM (active)	1.92 µM (inactive)		1.51 µM (inactive)	1.9 µM (inactive)	
NC1C2C=CC(C2)C1C(=O)O (stereo not drawn)	> 100 µM (inactive)	> 100 µM (inactive)	> 100 µM (inactive)	> 100 µM (inactive)	> 100 µM (inactive)	> 100 µM (inactive)	> 100 µM (inactive)	> 100 µM (inactive)	> 100 µM (inactive)	> 100 µM (inactive)	> 100 µM (inactive)	> 100 µM (inactive)	> 100 µM (inactive)	> 100 µM (inactive)	9.08 µM (inactive)	> 100 µM (inactive)	> 100 µM (inactive)	> 100 µM (inactive)	> 100 µM (inactive)	
CN(c1ccccc1)c1c(-c2ccccc2)c(=O)oc2c1ccc1occc12			> 100 µM (inactive)	> 100 µM (inactive)	> 100 µM (inactive)	39.7 µM (inactive)			> 100 µM (inactive)	> 100 µM (inactive)		> 100 µM (inactive)	> 100 µM (inactive)	> 100 µM (inactive)	> 100 µM (inactive)	> 100 µM (inactive)		> 100 µM (inactive)	> 100 µM (inactive)	
CCCCCCCCCCCCCCCCOCC(COP(=O)([O-])OCC[N+](C)(C)C)OCCCCCCCCCCCCCCCC (stereo not drawn)			> 100 µM (inactive)	> 100 µM (inactive)	> 100 µM (inactive)	> 100 µM (inactive)	> 100 µM (inactive)		> 92.9 µM (inactive)	> 100 µM (inactive)	> 100 µM (inactive)	> 100 µM (inactive)	> 100 µM (inactive)	> 100 µM (inactive)	> 100 µM (inactive)	> 100 µM (inactive)		> 100 µM (inactive)	> 100 µM (inactive)	
Nc1c(C(=O)Nc2ccc(C3=NCCN3)cc2)cccc1C(=O)Nc1ccc(C2=NCCN2)cc1			> 100 µM (inactive)	> 100 µM (inactive)	> 100 µM (inactive)	> 100 µM (inactive)	> 100 µM (inactive)		> 100 µM (inactive)	> 100 µM (inactive)	> 100 µM (inactive)	65.3 µM (inactive)	> 100 µM (inactive)	> 100 µM (inactive)	> 100 µM (inactive)	> 100 µM (inactive)		> 100 µM (inactive)	> 100 µM (inactive)	
CC(=O)NC1CC(C(C)(C)NC(C)=O)CC=C1C (stereo not drawn)	> 100 µM (inactive)		> 100 µM (inactive)	> 100 µM (inactive)	> 100 µM (inactive)	> 100 µM (inactive)	> 100 µM (inactive)	> 100 µM (inactive)	> 100 µM (inactive)	> 100 µM (inactive)	> 100 µM (inactive)	> 100 µM (inactive)	> 100 µM (inactive)	> 100 µM (inactive)	> 100 µM (inactive)	> 100 µM (inactive)	> 100 µM (inactive)	> 100 µM (inactive)		> 100 µM (inactive)
Nc1nc(N)c2c(CCc3ccc(C(=O)N[C@@H](CCC(=O)O)C(=O)O)cc3)ccnc2n1		< 0.0236 µM (active)		1.27 µM (inactive)	< 0.01 µM (active)	< 0.01 µM (active)	1.21 µM (inactive)	< 0.0218 µM (active)	< 0.0211 µM (active)	0.0365 µM (active)		< 0.01 µM (active)	0.0308 µM (active)	0.148 µM (active)	< 0.0145 µM (active)	0.0855 µM (active)	0.0363 µM (active)	0.0164 µM (active)	0.541 µM (active)	
CCN(CC)c1c(C)c(C(=O)OC)nn1-c1ccccc1			63.1 µM (inactive)	> 100 µM (inactive)	89.1 µM (inactive)	35.2 µM (inactive)	71 µM (inactive)		36.4 µM (inactive)	60.5 µM (inactive)	> 100 µM (inactive)	> 100 µM (inactive)	81.3 µM (inactive)	> 83.6 µM (inactive)	> 100 µM (inactive)	32.8 µM (inactive)		33 µM (inactive)	> 85.1 µM (inactive)	
COc1cc2c(cc1Oc1c(Oc3c(O)c(OC)cc4c3C(CC(C)C)N(C)CC4)c(OC)cc3c1C(CC(C)C)N(C)CC3)C(CC(C)C)N(C)CC2 (stereo not drawn)			0.8 µM (active)	0.351 µM (active)	0.643 µM (active)	3.03 µM (inactive)	0.465 µM (active)		2.38 µM (inactive)	1.12 µM (inactive)	5.11 µM (inactive)	0.618 µM (active)	1.51 µM (inactive)	0.904 µM (active)	0.376 µM (active)	0.375 µM (active)		3.95 µM (inactive)	0.152 µM (active)	
CC(=O)Nc1ccc(C2=N/C(=C\c3ccc(Cl)c(Cl)c3)C(=O)O2)cc1		> 100 µM (inactive)	> 100 µM (inactive)	> 100 µM (inactive)	> 100 µM (inactive)	> 100 µM (inactive)	68.9 µM (inactive)	> 100 µM (inactive)		> 100 µM (inactive)	> 100 µM (inactive)	> 100 µM (inactive)	> 100 µM (inactive)	> 100 µM (inactive)	> 100 µM (inactive)	> 100 µM (inactive)	> 100 µM (inactive)	> 100 µM (inactive)	> 100 µM (inactive)	68.9 µM (inactive)
COc1cc2c(c(OC)c1OC)-c1[nH]ncc1CC2	> 100 µM (inactive)	> 100 µM (inactive)	> 100 µM (inactive)	> 100 µM (inactive)	> 100 µM (inactive)	> 100 µM (inactive)	> 100 µM (inactive)	> 100 µM (inactive)		> 100 µM (inactive)	> 100 µM (inactive)	> 100 µM (inactive)	> 100 µM (inactive)	> 100 µM (inactive)	> 100 µM (inactive)	> 100 µM (inactive)	> 100 µM (inactive)	> 100 µM (inactive)	> 100 µM (inactive)	> 100 µM (inactive)
C=C1CC(OC)(C(O)C(=O)N[C@H]2OCO[C@H]3C2O[C@H](C[C@@H](CO)OC)C(C)(C)C3OC)O[C@H](C)[C@@H]1C (stereo partly drawn)			0.0125 µM (active)	< 0.00931 µM (active)	< 0.00931 µM (active)	< 0.00931 µM (active)	< 0.00931 µM (active)		< 0.00931 µM (active)	< 0.00931 µM (active)	< 0.00931 µM (active)	< 0.00931 µM (active)	< 0.00931 µM (active)	< 0.00931 µM (active)	< 0.00931 µM (active)	< 0.00931 µM (active)		< 0.00931 µM (active)	< 0.00931 µM (active)	
CC(=O)O[C@H]1[C@@H](OC(C)=O)C(C)(C)/C=C/[C@H](C)C(=O)[C@@]2(OC(C)=O)C[C@@](C)(OC(C)=O)[C@H](OC(C)=O)[C@@H]2[C@H]2OC(=O)CC[C@@]2(OC(=O)c2ccccc2)[C@@H]1OCC(C)C		15.6 µM (inactive)	11.2 µM (inactive)	5.15 µM (inactive)	19.5 µM (inactive)	4.11 µM (inactive)	0.977 µM (active)	15.6 µM (inactive)	69 µM (inactive)	> 100 µM (inactive)	> 100 µM (inactive)	> 100 µM (inactive)	> 100 µM (inactive)	3.63 µM (inactive)	5.47 µM (inactive)	33.5 µM (inactive)	3.61 µM (inactive)	22.2 µM (inactive)		
O=C1O/C(=C(/c2ccc(Cl)cc2)c2nc3ccccc3[nH]2)C(O)=C1c1ccc(Cl)cc1	3.36 µM (inactive)	2.51 µM (inactive)	1.89 µM (inactive)	1.59 µM (inactive)	1.93 µM (inactive)	2 µM (inactive)	1.32 µM (inactive)	4.06 µM (inactive)		2.38 µM (inactive)	2.43 µM (inactive)	2.82 µM (inactive)	2.46 µM (inactive)	3.99 µM (inactive)	2.65 µM (inactive)		2.96 µM (inactive)	2.9 µM (inactive)	2.47 µM (inactive)	1.92 µM (inactive)
Cc1ccc(S(=O)(=O)NNC2Oc3cc4c(cc3C(c3ccccc3O)C2C)OCO4)cc1 (stereo not drawn)		13.2 µM (inactive)	10.2 µM (inactive)	14.7 µM (inactive)	10.4 µM (inactive)	18.4 µM (inactive)	17.1 µM (inactive)	13.4 µM (inactive)		11.4 µM (inactive)	16.1 µM (inactive)		14 µM (inactive)	11.6 µM (inactive)	16.9 µM (inactive)	14.5 µM (inactive)	15.5 µM (inactive)	11 µM (inactive)	16.8 µM (inactive)	13.3 µM (inactive)
